Assays:
[1] = tested on: CD44^+CD24^low+ BCSCs; settings: Azzam et al., 2013; cited from earlier work
[2] = tested on: HBC×22 and HBC×34 tamoxifen-resistant PDXs; assay: BCSC activity (MFE, ALDH-positive cells) in tamoxifen-resistant PDXs treated in vivo; design: species or system mice; settings: RO4929097 10 mg/kg/day oral gavage, 14 days
Description: Fulvestrant (kindly provided by Astrazeneca, 200 mg/kg/week) was administered by subcutaneous injection (0.1 ml/dose) on a weekly basis for fourteen days. […] Xenografts were collected in ice cold DMEM media for live cell assays, histological analysis and RNA and protein extraction. Patient-derived xenograft single cell suspension was obtained using a collagenase-hyaluronidase mixture for digestion (Stem Cell Technologies). […] Primary mammospheres were dissociated and replated in secondary mammosphere suspension culture for a further 7-9 days to measure self-renewal. Patient-derived xenograft cells were cultured for 7-10 days. For cell lines, cells were pre-treated in adherence and then cultured for 5 days in mammosphere culture. Mammosphere formation efficiency (MFE) was calculated by dividing the number of mammospheres formed (≧50 μm) by the original number of single cells seeded (500 cells/cm^2 for primary cells and 200 cells/cm^2 for cell lines) and is expressed as fold change normalised to control or as the mean percentage of MFE (Shaw et al., 2012). Dissociated single cells were suspended in Aldefluor assay buffer containing an ALDH substrate, bodipyaminoacetaldehyde (BAAA) at […], and incubated for 45 min at 37° C. […] Data were acquired on a LSR II (BD) flow cytometer and analysed using the BD FACSDiva™ software.

[3] = tested on: ALDH1A1; settings: short-term administration to patients; analysis of published microarray data; cited from earlier work
[4] = tested on: NOTCH4-ICD and JAG1; assay: NOTCH4-ICD and JAG1 Western Blot in MCF-7 cells; format: cell-based, human; settings: short term treatment of MCF-7 cells in vitro
Description: MCF7, T47D and ZR-75-1 cell lines were purchased from American Tissue Culture Collection (ATCC) and cultured in DMEM/F-12, GlutaMAX (Gibco) with 10% FBS (Gibco). Cells were treated for 3 days or 6 days with ethanol (control), 10^-6M 4-OH-tamoxifen or 10^−7M fulvestrant and/or with 10 μM of gamma-secretase inhibitor RO4929097 (Cellagen Technology) or DMSO (control).
Proteins were extracted with Protein Lysis Buffer (25 mM HEPES, 50 mM NaCl, 30 mM NaPP, 50 mM NaF, 1% Triton-X-100, 10% Glycerol, 5 mM EDTA, Protease Inhibitor cocktail, 1 μM PMSF). Lysates were placed on a rotator for 1 hour at 4° C., then were centrifuged at 10000 g at 4° C. for 10 min, and supernatants were collected. Protein concentrations were assessed using the BCA Protein Assay Kit (Thermo Scientific, 23225). Proteins were separated on a 10% gel (Biorad, 456-1033) by SDS-PAGE at 200V for 1 hour, and then were transferred on polyvinylidene difluoride (PVDF) membranes (BioRad, 170-4157) at 25 V/1,300 mA for 15 min using a Trans Blot Turbo (BioRad, 170-4155). Membranes were blocked in a solution of PBS containing 0.05% Tween-20 and 5% skimmed milk (Marvel) for 1 h at room temperature and primary antibodies were incubated overnight at 4° C. […]

[5] = tested on: Notch target genes HEY1 and HES1; assay: HEY1 and HES1 expression by real-time PCR in PDX tumors treated in vivo; design: species or system mice; settings: PDX tumors treated in vivo 2 weeks
Description: Tamoxifen citrate (Sigma, T9262, 10 mg/kg/day) and RO4929097 (Cellagen Technology, 3 mg/kg/day) were administered by oral gavage (0.1 ml/dose) on a five day from seven basis (weekends excluded) for fourteen days. Tamoxifen citrate and RO4929097 were prepared in 1% carboxymethylcellulose (Sigma, C9481) dissolved in distilled water. Fulvestrant (kindly provided by Astrazeneca, 200 mg/kg/week) was administered by subcutaneous injection (0.1 ml/dose) on a weekly basis for fourteen days. The HBC×22 and HBC×34 tamoxifen-resistant PDXs have been established by our collaborators in the Curie Institute (Cottu el al, 2014) and were treated for fourteen days in the presence or absence of the gamma-secretase inhibitor RO4929097 (10 mg/kg/day, oral gavage). […]
Total RNA was extracted using the RNeasy Plus Mini Kit (QIAGEN, 74104) and the concentration and purity determined using an ND-1000 spectrophotometer (NanoDrop Technologies). […] Quantitative real-time PCR reactions were set up in triplicate in 384-well plates and performed on the 7900 PCR machine (Applied Biosystems) using TaqMan® Universal PCR Master Mix (Applied Biosystems) and probes from Universal Probe Library (Roche). […] The expression levels were calculated using the ΔΔCt method and normalised to the housekeeping genes 36B4 and GAPDH. […]

[6] = tested on: ER+ BC; assay: Tamoxifen trial study (SBII:2a), survival stratified by ALDH1; format: in vivo, human; settings: 322 pre-menopausal ER+ BC patients; 2 years adjuvant tamoxifen vs no systemic treatment; ALDH1 dichotomised at median

For CC(C)(C(=O)NCC(F)(F)C(F)(F)F)C(=O)N[C@@H]1C(=O)Nc2ccccc2-c2ccccc21 [RO4929097], the “mammosphere and tumor formation” value [1] is listed as “reduce” and the “enrichment of BCSCs” value [2] is listed as “significantly reduced”.
For C[C@]12CC[C@@H]3c4ccc(O)cc4C[C@@H](CCCCCCCCC[S+]([O-])CCCC(F)(F)C(F)(F)F)[C@H]3[C@@H]1CC[C@@H]2O (some centres unmarked) [fulvestrant], the “expression of the ALDH1A1 gene in breast tumors” value [3] is listed as “significantly increased”, the “NOTCH4-ICD and JAG1 protein expression” value [4] is listed as “up-regulated” and the “HEY1 and HES1 expression” value [5] is listed as “increased”.
For CC/C(=C(\c1ccccc1)c1ccc(OCCN(C)C)cc1)c1ccccc1 [tamoxifen, (Z)-2-[4-(1,2-diphenylbut-1-enyl)phenoxy]-N,N-dimethylethanamine], the “NOTCH4-ICD and JAG1 protein expression” value [4] was “up-regulated”, the “HEY1 and HES1 expression” value [5] was “increased” and the “survival benefit from tamoxifen by epithelial ALDH1 expression” value [6] was “improvement in survival (ie. a response to treatment) was only seen in women with low epithelial ALDH1 expression”.

From patent publication US20160376659A1, “Breast Cancer Biomarker” (The University of Manchester, priority 2015, published 2016)
